According to patent publication US20200375945A1, “INHALABLE FORMULATION OF A SOLUTION CONTAINING INDACATEROL MALEATE AND GLYCOPYRRONIUM BROMIDE” (priority 2019, published 2020):

Legend:
[1] = Tested concentration and assay of the active ingredients in the inhalation solution; type: physicochemical; settings: in the sample solutions (ethanol/water, benzalkonium chloride, edetate disodium dihydrate)
[2] = Aerodynamic particle size distribution on Next Generation Impactor (NGI); type: physicochemical; settings: sample 2 sprayed with soft mist inhaler, NGI at 30 L/min
Method: Sample 2 was sprayed with a soft mist inhaler. Aerodynamic particle size distribution of droplets of sample 2 was measured on Next Generation Impactor (NGI). Next Generation Impactor operated at a flow rate of 30 L/min was used for determination of particle size distribution. For each of the impactor experiments, the impactor collection stages were coated with a silicone oil. The aerodynamic particle size distribution is expressed in terms of mass median aerodynamic diameter (MMAD) and Geometric Standard Deviation (GSD).

Compound: CCc1cc2c(cc1CC)CC(NC[C@H](O)c1ccc(O)c3[nH]c(=O)ccc13)C2.O=C(O)/C=C\C(=O)O [Indacaterol maleate, 5-[(R)-2-(5,6-diethyl-indan-2-ylamino)-1-hydroxy-ethyl]-8-hydroxy-(1H)-quinolin-2-one]
- Dissolution of the active in the solution [1]: completely dissolved
- MMAD (mass median aerodynamic diameter) [2]: 3.37 μm
